Tests used:
[1] = target: Glyoxalase I (Saccharomyces cerevisiae) (UniProt P50107); assay: Binding affinity on yeast glyoxalase I (GlxI) was determined
[2] = target: Glyoxalase I (Pseudomonas putida); assay: Binding affinity on Pseudomonas putida glyoxalase I (GlxI) was determined

Chain of Glyoxalase I (Saccharomyces cerevisiae) (P50107 whole entry, looked up): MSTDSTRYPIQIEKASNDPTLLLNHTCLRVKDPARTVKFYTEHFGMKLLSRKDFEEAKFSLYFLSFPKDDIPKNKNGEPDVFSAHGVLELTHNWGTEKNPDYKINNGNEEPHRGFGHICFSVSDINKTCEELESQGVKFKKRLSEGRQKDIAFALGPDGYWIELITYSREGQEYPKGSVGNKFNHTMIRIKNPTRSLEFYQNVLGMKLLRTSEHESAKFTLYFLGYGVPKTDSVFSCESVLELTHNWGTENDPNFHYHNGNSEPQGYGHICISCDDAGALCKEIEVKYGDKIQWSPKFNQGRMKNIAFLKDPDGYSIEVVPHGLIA

- Ki [1]: 68 µM
- Ki [2]: 86 µM
SMILES: CN(O)C(=O)SC[C@H](NC(=O)CC[C@H](N)C(=O)O)C(=O)NCC(=O)O [S-(N-methyl-N-hydroxycarbamoyl)glutathione]
